The target of assay [1] is T1, Renin (Homo sapiens, UniProt P00797).
T1 sequence (P00797 whole entry): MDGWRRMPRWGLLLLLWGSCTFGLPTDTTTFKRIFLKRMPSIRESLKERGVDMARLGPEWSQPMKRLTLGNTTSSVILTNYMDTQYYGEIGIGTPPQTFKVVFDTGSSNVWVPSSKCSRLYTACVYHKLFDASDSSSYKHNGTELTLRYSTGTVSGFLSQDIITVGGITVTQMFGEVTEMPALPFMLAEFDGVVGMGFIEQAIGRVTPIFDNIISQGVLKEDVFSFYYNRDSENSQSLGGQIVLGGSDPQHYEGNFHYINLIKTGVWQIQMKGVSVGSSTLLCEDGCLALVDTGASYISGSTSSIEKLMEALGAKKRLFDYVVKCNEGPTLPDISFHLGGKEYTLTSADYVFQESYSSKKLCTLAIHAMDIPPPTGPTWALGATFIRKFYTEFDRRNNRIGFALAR
As to the kind of experiment: Inhibition against purified human renin.

In assay [2] the target is T2, Renin (Rattus norvegicus) (UniProt P08424).
T2 sequence (whole entry): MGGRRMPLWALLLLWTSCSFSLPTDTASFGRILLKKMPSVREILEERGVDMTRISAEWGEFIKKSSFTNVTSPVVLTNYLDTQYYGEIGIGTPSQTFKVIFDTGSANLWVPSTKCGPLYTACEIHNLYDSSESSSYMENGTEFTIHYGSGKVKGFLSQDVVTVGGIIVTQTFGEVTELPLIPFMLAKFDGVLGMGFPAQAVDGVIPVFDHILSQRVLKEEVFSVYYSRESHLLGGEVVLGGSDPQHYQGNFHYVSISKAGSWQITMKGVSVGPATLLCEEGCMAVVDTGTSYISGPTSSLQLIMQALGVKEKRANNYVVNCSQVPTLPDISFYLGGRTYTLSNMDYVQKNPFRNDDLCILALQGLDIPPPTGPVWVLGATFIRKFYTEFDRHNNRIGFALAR
The assay is described as follows: Percentage inhibition against rat plasma renin at 1.0x10E-5M. The assay is classed as cell-free.

For a further assay, the target named is T3, Cathepsin D (Bos taurus, UniProt P80209).
T3 sequence (P80209 whole entry): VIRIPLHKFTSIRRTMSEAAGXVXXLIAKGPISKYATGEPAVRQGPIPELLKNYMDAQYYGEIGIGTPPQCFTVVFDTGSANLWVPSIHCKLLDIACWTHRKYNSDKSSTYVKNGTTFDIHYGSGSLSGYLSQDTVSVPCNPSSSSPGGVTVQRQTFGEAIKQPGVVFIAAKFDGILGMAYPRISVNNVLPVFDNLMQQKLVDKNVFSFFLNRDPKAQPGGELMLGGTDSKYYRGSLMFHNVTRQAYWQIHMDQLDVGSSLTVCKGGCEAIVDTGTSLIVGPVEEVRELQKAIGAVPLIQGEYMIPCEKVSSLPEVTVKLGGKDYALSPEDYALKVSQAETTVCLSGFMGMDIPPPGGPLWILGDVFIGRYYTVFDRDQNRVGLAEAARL
The assay is described as follows: Inhibition against cathepsin D.

The next assay concerns the target Pepsin A (Sus scrofa) (UniProt P00791). As to the kind of experiment: Percentage inhibition against pepsin; NI=no inhibition at 1.0x10E-5M.
The target in assay [3] is T1, Renin. The assay is described as follows: Inhibition against purified human renal renin.
The target in assay [4] is T1, Renin. The assay is described as follows: Inhibition against human plasma renin. The assay is classed as cell-free.
The target in assay [5] is T4, Renin (Rattus norvegicus, UniProt P08424).
T4 sequence (P08424 whole entry): T2 sequence (whole entry)
The assay is described as follows: Inhibition against rat plasma renin. The assay is classed as cell-free.

Assay [6] addresses T2, Renin (Rattus norvegicus). The assay is described as follows: Percentage inhibition against rat plasma renin. The assay is classed as cell-free. The conditions noted are these: concentration not given here.
The target in another assay is T5, Cathepsin D (Bos taurus) (UniProt P80209).
T5 sequence (whole entry): T3 sequence (P80209 whole entry)
As to the kind of experiment: Percentage inhibition against cathepsin D at 1.0x10E-5M.

Assay [7] addresses T4, Renin. As to the kind of experiment: Inhibition against rat plasma renin. The assay is classed as cell-free.

Pepsin A (Sus scrofa), sequence (P00791 60-385 limits assumed): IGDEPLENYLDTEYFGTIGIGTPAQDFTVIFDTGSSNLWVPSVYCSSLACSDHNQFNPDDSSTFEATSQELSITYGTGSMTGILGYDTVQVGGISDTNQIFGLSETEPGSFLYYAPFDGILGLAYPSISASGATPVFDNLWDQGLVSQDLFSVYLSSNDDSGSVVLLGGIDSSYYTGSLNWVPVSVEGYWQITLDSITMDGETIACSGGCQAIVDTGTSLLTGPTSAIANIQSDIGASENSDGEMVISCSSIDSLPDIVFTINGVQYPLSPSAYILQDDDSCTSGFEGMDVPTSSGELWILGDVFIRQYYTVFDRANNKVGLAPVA

By IC50 is commonly meant the concentration at which inhibition is half-maximal. Lower therefore signals higher potency. Regarding `CC(C)C[C@H](NC(=O)[C@H](C)NC(=O)[C@H](Cc1ccccc1)NC(=O)OC(C)(C)C)[C@@H](O)CCSC(C)C`, the half-inhibitory concentration (IC50) at Renin [1] was determined as 4.8 µM.
The inhibition is how much of the control response was suppressed. For `CC(C)C[C@H](NC(=O)[C@H](Cc1ccccc1)NC(=O)OC(C)(C)C)C(=O)N[C@@H](CC1CCCCC1)[C@@H](O)CCS(=O)(=O)C(C)C`, the results for the inhibition (in assay [2]; at Pepsin A (Sus scrofa)) were 18% and “No inhibition”, respectively. In addition, the IC50 on Cathepsin D is 8 µM; against Renin [3], 14 nM; against Renin [4], 77 nM; against Renin [5], greater than 10 µM.
For `CC(C)C[C@H](NC(=O)[C@H](C)NC(=O)[C@H](Cc1ccccc1)NC(=O)OC(C)(C)C)[C@@H](O)CCS(=O)(=O)C(C)C`, half-maximal inhibition against Renin [1] (IC50) was put at 1.6 µM.
Turning to `CC(C)CCSCC[C@H](O)[C@H](CC(C)C)NC(=O)[C@H](C)NC(=O)[C@H](Cc1ccccc1)NC(=O)OC(C)(C)C`, the midpoint of inhibition against Renin [1], the IC50, lay at 5.5 µM.
For `CCS(=O)(=O)CC[C@H](O)[C@H](CC1CCCCC1)NC(=O)[C@H](Cc1c[nH]cn1)NC(=O)[C@H](Cc1ccccc1)NC(=O)OC(C)(C)C`, the inhibition (in [6]; against Cathepsin D (Bos taurus)) was 0% throughout.
On to `CC(C)S(=O)(=O)CC[C@H](O)[C@H](CC1CCCCC1)NC(=O)[C@H](C)NC(=O)[C@H](Cc1ccccc1)NC(=O)OC(C)(C)C`, for which the figures for the inhibition (in assay [2]; on Pepsin A (Sus scrofa); against Cathepsin D (Bos taurus)) were 12%, “No inhibition” and 22%, respectively. In addition, the half-maximal inhibitory concentration (IC50) is greater than 10 µM at Cathepsin D, 76 nM against Renin [3], 850 nM against Renin [4] and greater than 10 µM at Renin [5].
At Renin [4], `CC[C@H](C)[C@H](NC(=O)[C@@H](NC(O)[C@H](CC(C)C)NC(=O)[C@H](Cc1c[nH]cn1)NC(=O)[C@H](Cc1ccccc1)NC(=O)[C@@H]1CCCN1C(=O)[C@H](Cc1c[nH]cn1)NC(=O)OC(C)(C)C)C(C)C)C(=O)N[C@@H](Cc1c[nH]cn1)C(=O)O` (some centres not stated) yielded an IC50 of 0.7 nM.
In the case of `CC(C)CSCC[C@H](O)[C@H](CC(C)C)NC(=O)[C@H](C)NC(=O)[C@H](Cc1ccccc1)NC(=O)OC(C)(C)C`, at Renin [1], the IC50 came out at 4.1 µM.
On to `CC(C)S(=O)(=O)CC[C@H](O)[C@H](CC1CCCCC1)NC(=O)[C@H](Cc1ccccc1)NC(=O)[C@H](Cc1ccccc1)NC(=O)OC(C)(C)C`, for which the inhibition in assay [2] is 26%; on Pepsin A (Sus scrofa) it was “No inhibition”; against Cathepsin D (Bos taurus), 0%. The half-maximal inhibitory concentration (IC50) was greater than 10 µM against Cathepsin D, 20 nM on Renin [3], 340 nM on Renin [4] and greater than 10 µM at Renin [5].
With `CC(C)S(=O)(=O)CC[C@H](O)[C@H](CC1CCCCC1)NC(=O)[C@H](Cc1c[nH]cn1)NC(=O)[C@H](Cc1ccccc1)NC(=O)OC(C)(C)C`, the IC50 against Renin [7] came out at 10 µM; against Renin [1], 0.0076 µM; on Cathepsin D, 10 µM; on Renin [4], 27 nM. Further, the inhibition in [6] came to 11%; against Cathepsin D (Bos taurus), 0%.
As to `CCOC(=O)N[C@@H](Cc1ccccc1)C(=O)N[C@@H](Cc1cnc[nH]1)C(=O)N[C@@H](CC1CCCCC1)[C@@H](O)CCS(=O)(=O)C(C)C`, the concentration for half-maximal inhibition (IC50) against Cathepsin D is greater than 10 µM; at Renin [3], 10 nM; against Renin [4] it was 23 nM; on Renin [5] it was greater than 10 µM.
At Renin [1], `CC(C)CCC(=O)CC[C@H](O)[C@H](CC(C)C)NC(=O)[C@H](C)NC(=O)[C@H](Cc1ccccc1)NC(=O)OC(C)(C)C` had an IC50 of 2.4 µM.
Compound `CC(C)CCS(=O)(=O)CC[C@H](O)[C@H](CC(C)C)NC(=O)[C@H](C)NC(=O)[C@H](Cc1ccccc1)NC(=O)OC(C)(C)C` came in with an IC50 at Renin [1] of 2.4 µM.
As for `CCOC(=O)N[C@@H](Cc1ccccc1)C(=O)N[C@@H](Cc1c[nH]cn1)C(=O)N[C@@H](CC1CCCCC1)[C@@H](O)CCS(=O)(=O)C(C)C`, the inhibition in [2] was 12%; on Pepsin A (Sus scrofa), “No inhibition”; against Cathepsin D (Bos taurus) it was 0%.
`CC(C)C[C@H](NC(=O)[C@H](C)NC(=O)[C@H](Cc1ccccc1)NC(=O)OC(C)(C)C)[C@@H](O)CCS(=O)(=O)CCc1ccccc1` displayed a concentration for half-maximal inhibition (IC50) against Renin [1] of 1.8 µM.
Take `CC(C)S(=O)(=O)CC[C@H](O)[C@H](CC1CCCCC1)NC(=O)[C@H](Cc1c[nH]cn1)NC(=O)[C@H](Cc1ccccc1)NC(=O)CC(C)(C)C`: the results for the inhibition (in [2]; on Pepsin A (Sus scrofa); against Cathepsin D (Bos taurus)) were 30%, “No inhibition” and 0%, respectively. The half-inhibitory concentration (IC50) on Cathepsin D was greater than 10 µM; on Renin [3] it was 6 nM; against Renin [4], 19 nM; against Renin [5], greater than 10 µM.
On to `CC(C)C[C@H](NC(=O)[C@H](C)NC(=O)[C@H](Cc1ccccc1)NC(=O)OC(C)(C)C)[C@@H](O)CCSCCc1ccccc1`, for which the concentration for half-maximal inhibition (IC50) against Renin [1] was 4.2 µM.
On the same count and under the same terms, in the case of `CC(C)CCC(O)CC[C@H](O)[C@H](CC(C)C)NC(=O)[C@H](C)NC(=O)[C@H](Cc1ccccc1)NC(=O)OC(C)(C)C` (some centres not stated) it was 3.8 µM.
Consider `COc1ccc(C[C@H](NC(=O)OC(C)(C)C)C(=O)N[C@@H](Cc2c[nH]cn2)C(=O)N[C@@H](CC2CCCCC2)[C@@H](O)CCS(=O)(=O)C(C)C)cc1`, for which the inhibition in [2] was 0%; at Pepsin A (Sus scrofa) it was “No inhibition”; at Cathepsin D (Bos taurus), 0%. The concentration for half-maximal inhibition (IC50) at Cathepsin D was greater than 10 µM; against Renin [3] it was 9.1 nM; at Renin [4], 41 nM; on Renin [5], greater than 10 µM.
In the case of `CCS(=O)(=O)CC[C@H](O)[C@H](CC1CCCCC1)NC(=O)[C@H](Cc1cnc[nH]1)NC(=O)[C@H](Cc1ccccc1)NC(=O)OC(C)(C)C`, the IC50 on Renin [7] is greater than 10 µM; on Renin [1], 0.0076 µM; against Cathepsin D, greater than 10 µM; at Renin [4], 28 nM.
As to `CC(C)C[C@H](NC(=O)[C@H](C)NC(=O)[C@H](Cc1ccccc1)NC(=O)OC(C)(C)C)[C@@H](O)CCS(=O)(=O)CC(C)C`, the IC50 on Renin [1] was 3.2 µM.
Consider `CCS(=O)(=O)CC[C@H](O)[C@H](CC1CCCCC1)NC(=O)[C@H](C)NC(=O)[C@H](Cc1ccccc1)NC(=O)OC(C)(C)C`, for which the values for the inhibition (in assay [2]; on Pepsin A (Sus scrofa); at Cathepsin D (Bos taurus)) were 2%, “No inhibition” and 18%, respectively. The IC50 against Cathepsin D is greater than 10 µM; at Renin [3] it was 140 nM; against Renin [4], 1000 nM; against Renin [5], greater than 10 µM.
With `CC(C)CC[S+]([O-])CC[C@H](O)[C@H](CC(C)C)NC(=O)[C@H](C)NC(=O)[C@H](Cc1ccccc1)NC(=O)OC(C)(C)C` (some centres not stated), on Renin [1], half-maximal inhibition (IC50) required 5.2 µM.

The record behind these values is ChEMBL document CHEMBL1123605, “Renin inhibitors. Dipeptide analogues of angiotensinogen incorporating transition-state, nonpeptidic replacements at the scissile bond” (J Med Chem, 1987).
